Where two headings read alike, the source gives them in different places. Square brackets hold non-standard residues; d marks the D form. * marks the point of attachment. Phe(4-guanidino) = N=C(N)Nc1ccc(C[C@H](N)C(=O)O)cc1; Phe(4-F) = N[C@@H](Cc1ccc(F)cc1)C(=O)O; trans‑cinnamoyl = O=C(/C=C/c1ccccc1)*
Key:
[1] = test system: cortical astrocytes; test: Astrocyte proliferation by BrdU incorporation; type: cell-based, mouse; conditions: 24-hour pre-treatment; counting of BrdU-positive cells
Method: Cortical astrocytes from wild type and PAR1−/− knockout mice were either untreated (control) or treated for 24 hours with a 3 or 30 micromolar concentration of the peptide TFLLR-NH2 (SEQ ID NO: 1), which selectively activates PAR1. Cells were pulse-labeled with BrdU for the final 2 hours of culture.

[2] = test system: NMDA receptor; test: Two electrode voltage clamp of recombinant NMDA receptors with or without PAR1 in Xenopus oocytes; type: cell-based, Xenopus laevis
Method: Expression and recording of NMDA and PAR1 receptor function in Xenopus laevis oocvtes. cRNA was synthesized from linearized template cDNA according to manufacturer specifications (Ambion, Austin, Tex.). Xenopus oocytes were removed from ovaries of female frogs anesthetized with 0.3% 3-aminobenzoic acid ethylester. Groups of 20-30 stage V-VI oocytes were incubated in 292 U/ml Worthington (Freehold, N.J.) Type IV collagenase for 2 hours with slow shaking. The oocytes were rinsed in Barth's solution, and stored at 17° C. in Barth's solution supplemented with 100 microgram/ml gentamycin and 40 microgram/ml streptomycin. Control oocytes were injected with 3 ng NR1 subunit and 7 ng NR2B subunit. Other oocytes were injected with the NMDA receptor subunits plus 3 ng PAR1 cRNA. Two electrode voltage clamp recordings were made 3-7 days post-injection. Oocytes were continually perfused with recording solution (in mM, 90 NaCl, 1 KCl, 10 HEPES, pH 7.4) and held under voltage clamp at −30 to −50 mV with an OC-725B amplifier (Warner Instruments, Hamden, Conn.). Recording solution was supplemented with 1.0 mM CaCl2 during initial impalement of the oocytes and subsequently 0.5 mM BaCl2 during recording to reduce the calcium-activated chloride current endogenous to oocytes. […] NMDA receptor currents were evoked by 20 micromolar glutamate/10 micromolar glycine perfused for 0.5-1 minute. […] Expression of PAR1 protein was verified by a thrombin or SFLLRN-stimulated rapidly desensitizing inward current at −30 mV that reflects the Ca^2+-activated Cl^− current endogenous to the oocyte. To test the ability of thrombin to modify NMDA receptor function in oocytes, recordings of receptor function were made both before and after a 15-60 min incubation in recording solution supplemented with thrombin in Eppendorf tubes at room temperature. […] Oocytes with responses less than 50 nA were not included in the analysis.

[3] = test system: NMDA receptor; test: Whole cell patch recording of NMDA-evoked currents in hippocampal slice CA1 pyramidal neurons; type: cell-based, rat; conditions: for average peak potentiation by thrombin: 1.4 mM Mg2+, n=19
[4] = test system: PAR1; type: cell-based, rat
[5] = test system: NR1 subunit; test: NMDA receptor subunit immunoblots of thrombin-treated brain membranes; type: biochemical, rat
Method: (§1) NMDA receptor subunit immunoblots. Human embryonic kidney (HEK) cells were maintained in DMEM supplemented with 0.5 mM glutamine, 1 mM pyruvate, penicillin, streptomycin, and 10% fetal bovine serum in a humidified environment with 5% CO2, and transfected with 1 microgram/ml of NR1 or 1:2 microgram/ml NR1:NR2 cDNA. Cells were washed in ice-cold HEPES buffered saline (HBS), scraped on ice, and membranes isolated by centrifugation at 12,000×g. […] Adult rat brain regions were dissected, frozen in liquid nitrogen, homogenized in ice-cold HEPES buffered saline (HBS), centrifuged, and stored at −20° C. Membranes were resuspended in HBS and treated with thrombin or buffer for 30 min at 37° C. Samples were centrifuged, and the membrane pellet resuspended in 2% sodium dodecylsulphate (SDS), 62.5 mM Tris, 10% glycerol, 5% beta-mercaptoethanol, 0.05% bromophenol blue (pH 6.8); some samples were treated with IOU DNase for 10 min at 37° C. SDS/polyacrylamide gel electrophoresis (SDS/PAGE) and protein blotting to Immobilon-P membranes was performed as described (Lau and Huganir, Differential tyrosine phosphorylation of N-methyl-D-aspartate receptor subunits. J Biol Chem 270: 20036-20041, 1995). Membranes were blocked for 30 min in 0.2 M Tris base, 1.37 M NaCl, pH 7.4, containing 5% nonfat dry milk, and incubated overnight at 4° C. in primary antibodies: NR1 mAb54.1 (gift from Dr. S. Heinemann, Salk Institute, La Jolla Calif.), NR1 alt-C-terminal (Upstate Biotechnology, Lake Placid, N.Y.), NR2A C-terminal (Chemicon, Temecula, Calif.), or NR2B C-terminal (Upstate Biotechnology). Membranes were washed 3×, and incubated with HRP-conjugated goat anti-mouse or goat anti-rabbit antibodies (1:10,000), washed 3×, and developed using enhanced chemiluminescence. The percent of receptor cleaved by thrombin was determined using densitometry.

[6] = test system: PAR1; test: PI hydrolysis in hippocampal slices; type: cell-based, mouse
From the text: PAR1 is a seven transmembrane G-protein coupled receptor that stimulates G-alpha-q to initiate phosphatidyl inositol (PI) hydrolysis. To ensure that PAR1 is functional in regions of the brain that are subject to ischemic damage in the mouse transient focal ischemia model, we tested the ability of several activators of PAR1 to initiate PI hydrolysis (Chung et al., 1997) in the hippocampus and striatum.
Since tPA activates plasminogen to form plasmin, we tested whether exogenously applied tPA could activate endogenous plasminogen in brain slices to form plasmin and activate PAR1.

[7] = test system: NMDA receptor; test: Whole cell patch recording of NMDA-evoked currents in hippocampal CA1 pyramidal cells of wild-type and PAR1-/- mice; type: cell-based, mouse
[8] = test system: NR1 subunit; test: NMDA receptor subunit immunoblots of thrombin-treated brain membranes; type: biochemical, rat; remark: listed apart in the source
[9] = target: T1, NR1 subunit (Rattus norvegicus, UniProt P35439); test: Thrombin cleavage of recombinant NR1 subunits in HEK 293 cells (immunoblot); type: biochemical; conditions: 10-1000 U/ml thrombin
T1 construct: expressed in transfected cells; host or cells: HEK 293 cells, transient transfection; isolated membranes treated with thrombin
Method: as §1, with “Membranes were blocked for 30 min in 0.2 M Tris base, 1.37 M NaCl, pH 7.4, containing 5% nonfat dry milk, and incubated overnight at 4° C. in primary antibodies: NR1 mAb54.1 (gift from Dr. S. Heinemann, Salk Institute, La Jolla Calif.), NR1 alt-C-terminal (Upstate Biotechnology, Lake Placid, N.Y.), NR2A C-terminal (Chemicon, Temecula, Calif.), or NR2B C-terminal (Upstate Biotechnology). Membranes were washed 3×, and incubated with HRP-conjugated goat anti-mouse or goat anti-rabbit antibodies (1:10,000), washed 3×, and developed using enhanced chemiluminescence.” left out

[10] = test system: hippocampal slices; test: Transmitted light measurements in hippocampal slices (extracellular volume fraction); type: cell-based, rat; conditions: 3-7 U/ml thrombin, 10-20 minutes
Method: Rat hippocampal slices were prepared as described above, and were bathed in a submerged chamber with 0.5 micromolar TTX, and 3-7 U/ml thrombin in 0.5 micromolar TTX applied for 10-20 minutes. The intensity of transmitted light (450-490 nm) through hippocampal slices was monitored as an indication of extracellular volume fraction (Andrew and MacVicar, Imaging cell volume changes and neuronal excitation in the hippocampal slice. Neuroscience 62: 371-383, 1994). Images were recorded using a Princeton Micromax CCD camera (Trenton, N.J.; 0.2 sec exposure every 20 to 40 sec) and analyzed using Axon Imaging Workbench 2.1 software (Foster City, Calif.). Intensity was expressed as I/Io where Io is the intensity of transmitted light prior to treatment. Solutions were made hyperosmotic by addition of 30 mM mannitol, which can produce a 10% expansion of the extracellular volume fraction (McBain et al. Regional variation of extracellular space in hippocampus. Science 249: 674-677, 1990). Hypoosmotic solutions were obtained by addition of 10% v/v water.

**Q.** pertussis toxin was tested. Which “inhibition of PAR1-induced astrocyte proliferation” value [1] did it give?
**A.** could be inhibited

**Q.** With SFLLRN [reference compound] as the molecule, how does the “potentiation of NMDA receptor current after SFLLRN stimulation of PAR1” value ([2]; NR1-1a/NR2B plus PAR1, 10-30 micromolar SFLLRN, n=9) read?
**A.** 1.41±0.11 fold

**Q.** What about the “SFLLRN potentiation of NR1-1a/NR2A receptors” value ([2]; oocytes with PAR1, 10-30 micromolar SFLLRN, n=6) of the same molecule?
**A.** 1.85±0.1 fold

**Q.** What about the “potentiation of the response to pressure applied NMDA plus glycine” value ([3]; 30 micromolar SFLLRN, n=9) of the same molecule?
**A.** 1.76±0.19 fold

**Q.** What about the “Fluo-3 fluorescence in soma and dendrites” value ([4]; 3 nM thrombin or 10 micromolar SFLLRN, TTX/APV present, subset of neurons) of the same molecule?
**A.** robust increase

**Q.** What about the “stimulation of NR1 cleavage” value ([5]; 0.1-1 mM SFLLRN) of the same molecule?
**A.** did not stimulate cleavage

**Q.** Which “inhibition of PI hydrolysis produced by thrombin and plasmin” value ([6]; pre-incubation with antagonist peptide) does the source give for “N-trans-cinnamoyl-p-fluoroPhe-p-guanidinoPhe-Leu-Arg-Arg-NH2 ({trans‑cinnamoyl}-[Phe(4-F)][Phe(4-guanidino)]LRR-NH2; SMILES CC(C)C[C@H](NC(=O)[C@H](Cc1ccc(NC(=N)N)cc1)NC(=O)[C@H](Cc1ccc(F)cc1)NC(=O)/C=C/c1ccccc1)C(=O)N[C@@H](CCCNC(=N)N)C(=O)N[C@@H](CCCNC(=N)N)C(N)=O) [PAR1 antagonist peptide, reference compound]” here?
**A.** inhibited PI hydrolysis

**Q.** With N[C@H](CCCP(=O)(O)O)C(=O)O [APV, D-2-amino-5-phosphonovaleric acid, reference compound] as the molecule, how does the “block of NMDA receptor response following thrombin treatment” value ([7]; 100 micromolar APV, wild-type and PAR1-/- mice) read?
**A.** abolished

**Q.** And the “block of responses to NMDA/glycine” value ([3]; 100 micromolar APV)?
**A.** blocked the response

**Q.** Which NMDA receptor responses ([7]; PAR1-/- C57B1/6 mice, thrombin application) does the source give for thrombin here?
**A.** did not significantly increase

**Q.** What about the “potentiation of responses to pressure-applied NMDA plus glycine” value ([7]; wild-type C57B1/6 mice, 3 U/ml thrombin) of the same molecule?
**A.** robust potentiation

**Q.** And the “potentiation of NR1-1a/NR2A receptors coexpressed with PAR1” value ([2]; 3 nM thrombin, n=6)?
**A.** 1.68±0.11 fold

**Q.** What about the “potentiation of NR1-1a/NR2A receptors coexpressed with PAR1” value ([2]; 300 μM thrombin (so in the source), n=7) of the same molecule?
**A.** 1.37±0.08 fold

**Q.** And the “current response amplitude after incubation” value ([2]; 300-1000 nM thrombin, 60 minutes, n=7, buffer controls 78±5%)?
**A.** 42±9%

**Q.** What about the “ratio of NMDA receptor-mediated current after to before application” value ([2]; NR1-1a/NR2B, oocytes without PAR1, n=9) of the same molecule?
**A.** 0.87±0.04

**Q.** What about the “PAR1 potentiation of NR1-1a(C798A)/NR2B receptors” value ([2]; control oocytes lacking PAR1, n=5) of the same molecule?
**A.** 0.98±0.05

**Q.** And the “cleavage of NR1 subunit” value ([2]; low concentrations of thrombin (0.3-3 nM))?
**A.** did not produce any cleavage

**Q.** What about the “response amplitude of NR1/NR2A and NR1/NR2B receptors vs buffer” value ([2]; oocytes lacking thrombin receptors, 3 U/ml, 15 minutes, 23 C) of the same molecule?
**A.** no significant difference

**Q.** And the “PAR1 potentiation of NR1-1a(C798A)/NR2B receptors” value ([2]; oocytes with PAR1, n=7)?
**A.** 1.35±0.07

**Q.** What about the “potentiation of NR2A containing receptors” value ([2]; presence of 10 micromolar EDTA, n=12) of the same molecule?
**A.** 2.01±0.17 fold

**Q.** What about the “amplitude of NMDA receptor responses, NR1-1a with NR2c or NR2D” value ([2]; thrombin activation of PAR1) of the same molecule?
**A.** unaffected

**Q.** What about the “peak potentiation of NMDA responses” value ([3]; 30 nM (3 U/ml) thrombin, -70 mV, within 20 minutes, n=21) of the same molecule?
**A.** 2.07±0.27 fold

**Q.** What about the “average peak potentiation by thrombin” value ([3]; -40 mV) of the same molecule?
**A.** 1.48±0.11 fold

**Q.** And the “average peak potentiation by thrombin” value ([3]; -70 mV)?
**A.** 2.10±0.29 fold

**Q.** And the “thrombin potentiation of the NMDA response” value ([3]; cells excluded for low input resistance or increased series resistance, n=12)?
**A.** 1.8±0.2 fold

**Q.** What about the thrombin-induced potentiation ([3]; cells held at 0 mV, briefly stepped to -70 mV, n=7) of the same molecule?
**A.** 2.7±0.7 fold

**Q.** What about the “predicted cleavage of NR1 protein” value ([8]; 15 minute treatment of slices at 23 C, 3 U/ml, extrapolated assuming linear time, Q10 2.5) of the same molecule?
**A.** 1%

**Q.** What about the “NR1 cleavage product in CA1 region microdissected from slices” value ([8]; 15 minutes of 3 U/ml thrombin application at 23 C) of the same molecule?
**A.** no NR1 cleavage product was observed

**Q.** What about the NR1 subunit cleaved ([8]; hippocampal membranes, 30 nM thrombin (3 U/ml), 1 hour at 37 C) of the same molecule?
**A.** 20%

**Q.** And the “cleavage of recombinant NR1-1b and NR1-1b/NR2B receptors” value [9]?
**A.** cleaved both homomeric NR1-1b receptors

**Q.** And the “Fluo-3 fluorescence in soma and dendrites” value [4]?
**A.** robust increase

**Q.** And the “intensity of transmitted light I/Io” value ([10]; stratum pyramidale)?
**A.** 1.00±0.01

**Q.** And the “intensity of transmitted light I/Io” value ([10]; stratum radiatum)?
**A.** 1.01±0.01

**Q.** What about the PI hydrolysis ([6]; wild type hippocampus / hippocampal slices) of the same molecule?
**A.** increased PI hydrolysis

**Q.** And the NR1 subunits cleaved ([5]; 1-3 micromolar thrombin, all brain regions except striatum)?
**A.** 100%

**Q.** And the “molecular weight shift of NR2A or NR2B subunits” value ([5]; brain membranes, 3-300 U/ml thrombin)?
**A.** did not induce any observable molecular weight shift

**Q.** What about the “cleavage of NR1 subunits” value ([5]; cerebellar, cortical and brainstem membranes, 300 nM thrombin (30 U/ml)) of the same molecule?
**A.** insensitive to cleavage

**Q.** What about the NR1 cleaved ([5]; striatal membranes, 30 nM thrombin (3 U/ml)) of the same molecule?
**A.** 50%

**Q.** What about the “maximal observed cleavage of NR1” value ([5]; striatum, 1-3 micromolar thrombin) of the same molecule?
**A.** 52%

Source: patent publication US20080125498A1, “TREATMENT OF NEURODEGENERATIVE DISEASES AND CONDITIONS USING PAR1 ANTAGONISTS” (priority 2001, published 2008)
